Reference: patent US9108921B2, “Therapeutic compounds and compositions” (AGIOS PHARMACEUTICALS, INC, priority 2014, dated 2015)

Legend:
Format in all cases: biochemical
PKR R510Q = PKR R510Q (Homo sapiens, UniProt P30613, R510Q); assay: PKR Mutant Assay, AC50 against PKR R510Q; details: mutant PKR R510Q enzyme
Description: (§1) • PKR or PKR mutant enzyme solution was diluted in assay buffer. • 2 μL of test compound was added into wells first, and then 180 μL reaction mix was added. • Reactions mixture with test compound was assembled except for ADP, and plates were stored for 60 minutes at room temperature. • 20 uL ADP was added to start reaction at room temperature and reaction progress was measured as changes in absorbance at 340 nm wavelength at room temperature.
(§2) Test Compound Preparation: • Test compound stock was made at 100× concentration in 100% DMSO (10 mM) • 1 to 3 dilutions were made for 11 points (i.e. 50 μl of first concentration added to 100 μl 100% DMSO to yield 3.33 mM, 50 μl of this added to 100 μl DMSO to yield 1.11 mM, and so forth) • 1 to 100 dilution into assay (2 μl in 200 μl) yielded starting concentration of 100 μM, decreasing 3 fold for 11 points. Assay Buffer: 100 mM KCl, 50 mM Tris 7.5, 5 mM MgCl2, 1 mM DTT, 0.03% BSA Reaction Mixture: PKR mutant enzyme: 80-400 ng/well; ADP: 0.22-1.65 mM; PEP: 0.1-0.5 mM; NADH: 180 uM; LDH: 0.5 units (Sigma#59023); DTT: 1 mM; BSA: 0.03%.

PKR R532W = PKR R532W (Homo sapiens, UniProt P30613, R532W); assay: PKR Mutant Assay, AC50 against PKR R532W; details: mutant PKR R532W enzyme
Description: as §1, §2

PKR WT = PKR WT (Homo sapiens, UniProt P30613); assay: PKR WT enzymatic AC50 assay; details: wild type PKR
Description: as §1, §2

PKR R510Q, sequence (P30613 whole entry R510Q): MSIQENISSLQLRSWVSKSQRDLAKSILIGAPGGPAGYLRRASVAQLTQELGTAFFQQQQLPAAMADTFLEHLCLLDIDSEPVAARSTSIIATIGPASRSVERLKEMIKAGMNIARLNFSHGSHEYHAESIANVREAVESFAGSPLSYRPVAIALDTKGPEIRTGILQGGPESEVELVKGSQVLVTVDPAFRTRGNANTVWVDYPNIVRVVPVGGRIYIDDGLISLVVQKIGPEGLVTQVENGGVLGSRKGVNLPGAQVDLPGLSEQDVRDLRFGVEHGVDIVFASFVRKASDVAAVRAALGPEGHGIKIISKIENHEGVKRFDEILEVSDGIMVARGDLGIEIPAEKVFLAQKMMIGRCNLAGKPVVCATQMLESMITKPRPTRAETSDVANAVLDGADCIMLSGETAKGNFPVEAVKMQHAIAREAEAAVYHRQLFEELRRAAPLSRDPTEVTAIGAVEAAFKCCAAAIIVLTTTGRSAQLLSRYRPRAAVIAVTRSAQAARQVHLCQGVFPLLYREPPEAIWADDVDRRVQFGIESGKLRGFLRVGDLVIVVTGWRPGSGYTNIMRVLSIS
PKR R532W, sequence (P30613 whole entry R532W): as the sequence (P30613 whole entry R510Q) above, with Q510R, R532W counted along it
PKR WT, sequence (P30613 whole entry): as the sequence (P30613 whole entry R510Q) above, with Q510R counted along it

SMILES | AC50 (PKR R510Q) | AC50 (PKR R532W) | AC50 (PKR WT)
N#Cc1cccc(C2(O)CCN(C(=O)c3ccc(NS(=O)(=O)c4cccc5cccnc45)cc3)CC2)c1 [Compound 278] | 1010 to 10000 nM | 101 to 1000 nM | 101 to 1000 nM
O=C(c1ccc(NS(=O)(=O)c2ccc(F)c3cccnc23)cc1)N1CCC(O)(c2cccc(F)c2F)CC1 [Compound 227, N-(4-(4-(2,3-difluorophenyl)-4-hydroxypiperidine-1-carbonyl)phenyl)-5-fluoroquinoline-8-sulfonamide] | 101 to 1000 nM | 101 to 1000 nM | 101 to 1000 nM
O=C(c1ccc(NS(=O)(=O)c2ccc(F)c3cccnc23)cc1)N1CCC(O)(Cc2ccccc2C(F)(F)F)CC1 [Compound 208, 5-fluoro-N-(4-(4-hydroxy-4-(2-(trifluoromethyl)benzyl)piperidine-1-carbonyl)phenyl)quinoline-8-sulfonamide] | 101 to 1000 nM | < 100 nM | < 100 nM
N#Cc1ccccc1C1(O)CCN(C(=O)c2ccc(NS(=O)(=O)c3cccc4cccnc34)cc2)CC1 [Compound 266, N-(4-(4-(2-cyanophenyl)-4-hydroxypiperidine-1-carbonyl)phenyl)quinoline-8-sulfonamide] | 1010 to 10000 nM | 101 to 1000 nM | 101 to 1000 nM
CC1(CC2(O)CCN(C(=O)c3ccc(NS(=O)(=O)c4cccc5scnc45)cc3)CC2)CC1 [Compound 132, N-(4-(4-hydroxy-4-((1-methylcyclopropyl)methyl)piperidine-1-carbonyl)phenyl)benzo[d]thiazole-4-sulfonamide] | < 100 nM | < 100 nM | < 100 nM
O=C(c1ccc(NS(=O)(=O)c2cccc3cccnc23)cc1)N1CCC(O)(c2ccnc(F)c2)CC1 [Compound 247, N-[4-[4-(2-fluoropyridin-4-yl)-4-hydroxy-piperidine-1-carbonyl]phenyl]quinoline-8-sulfonamide] | 1010 to 10000 nM | 101 to 1000 nM | 101 to 1000 nM
O=C(c1ccc(NS(=O)(=O)c2cccc3cccnc23)cc1)N1CCC(O)(c2cccc3c2OCCO3)CC1 [Compound 284] | 1010 to 10000 nM | 101 to 1000 nM | 101 to 1000 nM
O=C(c1ccc(NS(=O)(=O)c2ccc(F)c3cccnc23)c(F)c1)N1CCC(O)(c2cccc(F)c2F)CC1 [Compound 277] | 1010 to 10000 nM | 101 to 1000 nM | 101 to 1000 nM
CCC1(O)CCN(C(=O)c2ccc(NS(=O)(=O)c3cccc4cccnc34)cc2)CC1 [Compound 267] | 1010 to 10000 nM | 101 to 1000 nM | 101 to 1000 nM
CC(C)CC1(O)CCN(C(=O)c2ccc(NS(=O)(=O)c3csc4cccnc34)cc2)CC1 [Compound 269] | 1010 to 10000 nM | 101 to 1000 nM | 101 to 1000 nM
O=C(c1ccc(NS(=O)(=O)c2ccc(F)c3scnc23)cc1)N1CCC(O)(c2ccccc2Cl)CC1 [Compound 231] | 1010 to 10000 nM | 101 to 1000 nM | 101 to 1000 nM
O=C(c1ccc(NS(=O)(=O)c2cccc3cccnc23)c(OC(F)(F)F)c1)N1CCC(O)(c2ccccc2Cl)CC1 [Compound 270] | 1010 to 10000 nM | 101 to 1000 nM | 101 to 1000 nM
O=C(c1ccc(NS(=O)(=O)c2cccc3cccnc23)cc1)N1CCC(O)(Cc2cccnn2)CC1 [Compound 272] | 1010 to 10000 nM | 101 to 1000 nM | 101 to 1000 nM
CC(C)CC1(O)CCN(C(=O)c2ccc(NS(=O)(=O)c3ccc(F)c4nccnc34)cc2)CC1 [Compound 242] | 101 to 1000 nM | 101 to 1000 nM | 101 to 1000 nM
O=C(c1ccc(NS(=O)(=O)c2cccc3csnc23)cc1)N1CCC(O)(c2ccccc2Cl)CC1 [Compound 244, N-(4-(4-(2-chlorophenyl)-4-hydroxypiperidine-1-carbonyl)phenyl)benzo[c]isothiazole-7-sulfonamide] | 1010 to 10000 nM | 101 to 1000 nM | 101 to 1000 nM
O=C(c1ccc(NS(=O)(=O)c2cccc3nccnc23)c(F)c1)N1CCC(O)(c2cccc(F)c2F)CC1 [Compound 262, N-(4-(4-(2,3-difluorophenyl)-4-hydroxypiperidine-1-carbonyl)-2-fluorophenyl)quinoxaline-5-sulfonamide] | 101 to 1000 nM | 101 to 1000 nM | 101 to 1000 nM
N#Cc1cc(NS(=O)(=O)c2cccc3cccnc23)ccc1C(=O)N1CCC(O)(c2ccccc2)CC1 [Compound 261, N-(3-cyano-4-(4-hydroxy-4-phenylpiperidine-1-carbonyl)phenyl)quinoline-8-sulfonamide] | 101 to 1000 nM | 101 to 1000 nM | 101 to 1000 nM
C=C(C)CC1(O)CCN(C(=O)c2ccc(NS(=O)(=O)c3cccc4scnc34)cc2)CC1 [Compound 181, N-(4-(4-hydroxy-4-(2-methylallyl)piperidine-1-carbonyl)phenyl)benzo[d]thiazole-4-sulfonamide] | 101 to 1000 nM | < 100 nM | < 100 nM
O=C(c1ccc(NS(=O)(=O)c2ccc(F)c3nccnc23)cc1)N1CCC(O)(c2ccccc2Cl)CC1 [Compound 234, N-(4-(4-(2-chlorophenyl)-4-hydroxypiperidine-1-carbonyl)phenyl)-8-fluoroquinoxaline-5-sulfonamide] | 101 to 1000 nM | 101 to 1000 nM | 101 to 1000 nM

Next, values leading:

AC50 (PKR R510Q) | AC50 (PKR R532W) | AC50 (PKR WT) | SMILES
> 10000 nM | 1010 to 10000 nM | 1010 to 10000 nM | O=C(c1ccc(N[S+]([O-])c2cccc3cccnc23)cc1)N1CCC(O)(c2ccccc2Cl)CC1 (stereo not drawn) [Compound 311]
> 10000 nM | 1010 to 10000 nM | 1010 to 10000 nM | CC(C)CC1(O)CCN(C(=O)c2ccc(NS(=O)(=O)c3cccn4ccnc34)cc2)CC1 [Compound 312]
> 10000 nM | > 10000 nM | > 10000 nM | O=C(c1ccc(NS(=O)(=O)c2c[nH]c3cccnc23)cc1)N1CCC(O)(c2ccccc2Cl)CC1 [Compound 316]
> 10000 nM | > 10000 nM | 1010 to 10000 nM | Nc1nc2cc(S(=O)(=O)Nc3ccc(C(=O)N4CCC(O)(c5ccccc5Cl)CC4)cc3)c(F)cc2s1 [Compound 418]
> 10000 nM | 1010 to 10000 nM | 1010 to 10000 nM | O=C(c1ccc(NS(=O)(=O)c2cccc3nsnc23)cc1)N1CCC(O)(c2ccccc2)CC1 [Compound 294]
1010 to 10000 nM | 1010 to 10000 nM | 1010 to 10000 nM | CC(C)CC1(O)CCN(C(=O)c2ccc(NS(=O)(=O)c3cccc4[nH]c(=O)cnc34)cc2)CC1 [Compound 438]
> 10000 nM | 1010 to 10000 nM | 1010 to 10000 nM | O=C(c1ccc(NS(=O)(=O)c2cccc3c2OC(F)(F)O3)cc1)N1CCC(O)(c2ccccc2Cl)CC1 [Compound 308]
< 100 nM | < 100 nM | < 100 nM | CNc1nc2c(S(=O)(=O)Nc3ccc(C(=O)N4CCC(O)(c5ccccc5Cl)CC4)cc3)cccc2s1 [Compound 409]
> 10000 nM | > 10000 nM | 1010 to 10000 nM | CC(C)CC1(O)CCN(C(=O)c2ccc(NS(=O)(=O)c3ccnc4scnc34)cc2)CC1 [Compound 314]
> 10000 nM | 1010 to 10000 nM | 1010 to 10000 nM | O=C(c1ccc(NS(=O)(=O)c2cccc3cccnc23)cn1)N1CCC(O)(c2ccccc2)CC1 [Compound 298]
> 10000 nM | 101 to 1000 nM | 101 to 1000 nM | COc1cccnc1C1(O)CCN(C(=O)c2ccc(NS(=O)(=O)c3cccc4cccnc34)cc2)CC1 [Compound 285]
> 10000 nM | 1010 to 10000 nM | 1010 to 10000 nM | O=C(c1ccc(NS(=O)(=O)c2cccc(OC(F)(F)F)c2)cc1)N1CCC(O)(Cc2ccccc2)CC1 [Compound 307]
